Assay results published in patent US20140073611A1, “METHODS FOR DRUG SCREEN USING ZEBRAFISH MODEL AND THE COMPOUNDS SCREENED THEREFROM” (National Taiwan University, priority 2012, published 2014).
Where a name gives a salt, the structure may show the parent alone.

Legend:
[1] = system: lumican knockdown zebrafish (zLum-MO); assay: Drug screen in lumican (zLum-MO) knockdown zebrafish: big eye ratio / scleral coat enlargement; type: in vivo; conditions: for outcome of the screen of about 30 drugs: lumican knockdown zebrafish model; for % of scleral enlargement in experimental group: zLum-MO knockdown model, vs. 30% of scleral enlargement in control group
Protocol: The term “big eye” denotes that an eye with a value of the axial length of the retinal pigmented epithelium layer divided by the axial length of the scleral coat is less than 0.7.
According to the disclosure, the knockdown zebrafish are exposed to a test compound at the optic cup formation stage thereof. Generally, at around 24 hours after fertilization, the optic cup of zebrafish is formed. The knockdown zebrafish can be exposed to the test compound at the optic cup formation stage. After contacting the knockdown zebrafish with the test compound, the test compound, if it is a potential candidate, may start to activate the expression of lumican and collagen fibrillogenesis, thereby decreasing the enlargement of eyeball and treating and/or preventing myopia and/or keratoconus disease. Retina lenses are established around 48 hours after fertilization, and the sclera and cornea are established around 72 hours after fertilization. At sclera and cornea establishment stage, the zebrafish are collected.
(§1) Big eye in a zebrafish is an indicator of myopia. As used herein, a “big eye” refers to an eye with an enlarged axial length of eyeball and denotes the value of the axial length of the retinal pigmented epithelium layer divided by the axial length of the scleral coat less than 0.7. The axial length of a retinal pigmented epithelium layer and the axial length of a scleral coat can be measured by any method known in the art—for example, dissecting microscopy.
The test compound can be identified as a candidate compound affecting the expression of lumican and/or collagen fibrillogenesis and/or regulation of eyeball size, and/or treating and/or preventing myopia and/or keratoconus disease if the ratio of the number of big eyes decreases relative to the total number of eyes in zebrafish or that of big eyes in control zebrafish that is not contacted with the test compound. […] Preferably, the ratio is less than 15%. More preferably, the ratio decreases to about 0% to about 30%, about 0% to about 25%, about 0% to about 20%, about 0% to about 15%, about 0% to about 10%, about 1% to about 30%, about 1% to about 25%, about 1% to about 20% or about 1% to about 15%.
Zebrafish are raised and maintained according to previously established protocols (Soules K A, Link B A. Morphogenesis of the anterior segment in the zebrafish eye. BMC Dev Biol 2005; 5:12). All experiments are performed on Tuebingen AB zebrafish raised at 28° C. on a 14-h light and 10-h dark cycle and maintained using standard methods. Embryos are staged according to morphological criteria (somite number) (Kimmel C B, Ballard W W, Kimmel S R, et al. Stages of embryonic development of the zebrafish. Dev Dyn 1995; 203(3):253-310) and timed in hours after fertilization. Embryos are generated by natural pair-wise mating, as described in the zebrafish handbook (Westerfield M. The Zebrafish Book; A Guide for the Laboratory Use of Zebrafish (Brachydanio rerio). University of Oregon Press, Eugene, 2nd edition 300P., 1993). For each mating, 4±5 pairs are set up and, on an average; 100±150 embryos per pair are generated. The zebrafish embryo is optically transparent, making it possible to detect functional and morphological changes in internal organs without having to kill or dissect the organism. Chorions are removed manually with Dumont Watchmaker's Forceps No. 5.
Morpholinos are chemically modified antisense oligonucleotides that can be designed to hybridize to the translation-initiation or splicing acceptor/donor sites of specific mRNAs (Nasevicius A, Ekker S C. Effective targeted gene ‘knockdown’ in zebrafish. Nat Genet 2000; 26(2):216-20). A morpholino-antisense oligonucleotide (Gene Tools, Philomath, Oreg.) are designed and synthesized to target the 5′-untranslated and/or flanking regions, including the translation start codon of the respective genes. The MO sequence is designed as follows: zLum-MO, 5′-[…]-3′.

[2] = system: lumican, collagen 1a1, TGF-beta, MMP2 and TIMP2; assay: Expression patterns in atropine-treated zLum knockdown morphant (FIG. 9); type: in vivo, zebrafish
Protocol: FIG. 9 depicts atropine rescues zLum knockdown morphant.
(§2) Morpholino is resuspended in sterile water to a concentration of 1 mmol/L and diluted to […] with sterile water. The morpholinos are injected at the single-cell stage in a volume of 0.0023 nL. Here, we identified the effects of morpholinos on protein levels are assayed with western blotting from injected embryos with GAPDH as a control.
We used several antibodies to evaluate the effects of lumican knockdown and all can be obtained from different commercial supplies. Rabbit anti-TGFβ2, Rabbit anti-MMP-2, Goat anti-TIMP-2, Goat anti-Col1a1 (L-19) and Goat anti-PDI are obtained from Santa Cruz. Mouse anti-GAPDH is obtained from Abnova.

[3] = system: zLum-MO-injected fish; conditions: in vivo zebrafish larvae assays; prior reference Yeh et al., J Biol Chem 2010; cited from earlier work
[4] = system: zLum-MO-injected fish; assay: Eye morphometry and phenotype of zLum-MO-injected fish after muscarinic antagonist treatment (FIGS. 7-8); type: in vivo, zebrafish; conditions: for diameter of the scleral coat / excessive axial elongation: zLum-MO-injected fish at 7 dpf, FIG. 7(C); for diameter of the scleral coat / excessive axial elongation / ratio of RPE/scleral coat (%): 0.5% atropine, 0.25% pirenzepine; for diameter of the scleral coat / excessive axial elongation / ratio of RPE/scleral coat (%) / ocular enlargement (phenotype): 0.01% methoctramine; for ratio of RPE/scleral coat (%): zLum-MO-injected fish, FIG. 7(D); for ocular enlargement (phenotype): zLum-MO-injected larvae at 7 dpf, 0.5% atropine for 2 days, 0.25% pirenzepine for 2 days, FIG. 8
Excerpt: FIGS. 7(A)-(D) depict a zebrafish drug screen assay. FIGS. 7(A) and (B) illustrate and define the outer margin of the retinal pigmented epithelium layer (RPE(red color)) and the diameter of the scleral coat (D(green color)) in zebrafish.
as §1
Morpholinos are chemically modified antisense oligonucleotides that can be designed to hybridize to the translation-initiation or splicing acceptor/donor sites of specific mRNAs (Nasevicius A, Ekker S C. Effective targeted gene ‘knockdown’ in zebrafish. Nat Genet 2000; 26(2):216-20). A morpholino-antisense oligonucleotide (Gene Tools, Philomath, Oreg.) are designed and synthesized to target the 5′-untranslated and/or flanking regions, including the translation start codon of the respective genes. The MO sequence is designed as follows: zLum-MO, 5′-[…]-3′. This oligonucleotide complemented the sequence from −8 through +17 with respect to the translation initiation codon. A random sequence MO (RS-MO) serves as a control for zLum-MO: 5′-[…]-3′. This RS-MO is obtained from Gene Tools as a standard control oligonucleotide with no target specificity (Yeh L K, Liu C Y, Kao W W, et al. Knockdown of zebrafish lumican gene (zlum) causes scleral thinning and increased size of scleral coats. J Biol Chem 2010; 285(36):28141-55).
as §2

CC(=O)Oc1ccccc1C(=O)O [Aspirin]
outcome of the screen of about 30 drugs [1]: effective candidate compounds
% of scleral enlargement in experimental group [1]: 9.6%

CN1[C@@H]2CC[C@H]1C[C@@H](OC(=O)C(CO)c1ccccc1)C2 (some centres unmarked) [Atropine]
expression of MMP-2 and TIMP ([2]; lumican knockdown fish, atropine treatment): returned to the normal level
expressions of lumican, collagen 1a1, TGF-beta, MMP2 and TIMP2 in lumican morphant ([2]; zLum knockdown morphant treated with atropine, FIG. 9): reverse the expressions
ocular enlargement caused by morpholinos [3]: effectively subdued the ocular enlargement
scleral coat enlargement ([4]; lumican knockdown fish, administration of atropine, FIGS. 7 to 9): could be inhibited
diameter of the scleral coat [4]: Significant decreases
excessive axial elongation [4]: significant decreases
ratio of RPE/scleral coat (%) [4]: attenuate the decreasing ratio
ocular enlargement (phenotype) [4]: significant decreases in ocular enlargement

CC(C)c1cccc(C(C)C)c1O [Propofol, 2,6-diisopropylphenol]
outcome of the screen of about 30 drugs [1]: effective candidate compounds
% of scleral enlargement in experimental group [1]: 12%

C[C@H](CS)C(=O)N1CCC[C@H]1C(=O)O [Captopril]
outcome of the screen of about 30 drugs [1]: effective candidate compounds

CC(C)[N+]1(C)[C@@H]2CC[C@H]1CC(OC(=O)C(CO)c1ccccc1)C2.[Br-] (some centres unmarked) [Ipratropium bromide]
Big eye rate(%) ([1]; lumican knockdown zebrafish, big eye = RPE/scleral coat axial length < 0.7, Conc.: Atropine 0.50%, Tropicamide 1 mM, Ipratropium 50 mM, Oxybutynin 2 uM, Scopolamine 100 uM, Pirenzepine 0.25%, SB 431542 25 uM, Tamoxifen 20 uM, Doxycycline 100 ppm, Genistein 25 uM, Marimastat 50 uM, Taurine 0.2M, Minocycline 50 uM, n-acetylcysteine 10 uM, Aspirin 50 mg/L, Propofol 0.5 mM, SP600125 2.5 uM, Zileuton 1): 26.0%

CC(=O)N[C@@H](CS)C(=O)O [n-acetylcysteine]
outcome of the screen of about 30 drugs [1]: effective candidate compounds
% of scleral enlargement in experimental group [1]: 11.7%

CN(C)c1ccc(O)c2c1C[C@H]1C[C@H]3[C@H](N(C)C)C(O)=C(C(N)=O)C(=O)[C@@]3(O)C(O)=C1C2=O [Minocycline hydrochloride]
% of scleral enlargement in experimental group [1]: 4.7%

C[C@H]1c2cccc(O)c2C(=O)C2=C(O)[C@]3(O)C(=O)C(C(N)=O)=C(O)[C@@H](N(C)C)[C@@H]3[C@@H](O)[C@@H]21 [Doxycycline hyclate]
% of scleral enlargement in experimental group [1]: 6.8%

COc1ccccc1CNCCCCCCNCCCCCCCCNCCCCCCNCc1ccccc1OC [methoctramine]
diameter of the scleral coat [4]: no obvious changes
excessive axial elongation [4]: no obvious changes
ratio of RPE/scleral coat (%) [4]: no obvious changes
ocular enlargement (phenotype) [4]: no obvious changes in the phenotypes

CNC(=O)[C@@H](NC(=O)[C@H](CC(C)C)[C@H](O)C(=O)NO)C(C)(C)C [Marimastat]
outcome of the screen of about 30 drugs [1]: effective candidate compounds
% of scleral enlargement in experimental group [1]: 2%

CN1CCN(CC(=O)N2c3ccccc3C(=O)Nc3cccnc32)CC1 [Pirenzepine dihydrochloride]
ocular enlargement caused by morpholinos [3]: effectively subdued the ocular enlargement
diameter of the scleral coat [4]: Significant decreases
excessive axial elongation [4]: significant decreases
ratio of RPE/scleral coat (%) [4]: attenuate the decreasing ratio
ocular enlargement (phenotype) [4]: decreases in ocular enlargement
